In one data set the test system is CD138+ primary MM cells. In words: Apoptosis of primary MM cells cocultured with BMSCs ex vivo. Type of data set: cell-based, human. The note with it: 10 μM, 24 hours, cocultured 1:1 with BMSCs. As to the method: (§1) MM cell lines ARP1, ARK, MM.1S, MM.1R and U266 were maintained in RPMI-1640 medium supplemented with 10% fetal bovine serum, 100 U/ml penicillin and 100 μg/ml streptomycin at 37° C. and 5% CO2 Primary MM cells and MM BMSCs were isolated from bone marrow aspirates of myeloma patients. PBMCs were obtained from healthy volunteers. The study was approved by the Institutional Review Board at The University of Texas M.D. Anderson Cancer Center. Anti-caspase-3, caspase-9, PARP, Bim, XIAP, cyclin D1, pp 70S6K (Thr389) and p27(Kip1) antibodies were purchased from Cell Signaling. Anti-bcl-2, Bc1-XL, Akt, pAkt (Thr 308), pAkt (Ser 473), p70S6K and β-actin antibodies were purchased from Santa Cruz. Compound A was dissolved in DMSO at 10 mM as stock solution. Dexamethasone and Propidium iodide (PI) were purchased from Sigma-Aldrich. Recombinant human IL6 was purchased from R&D Systems. FITC conjugated Annexin V was obtained from Invitrogen.
Apoptotic cells were determined as Annexin V positive cells.
To evaluate compound A function in primary MM cells, the study was extended to CD138+ primary MM cells freshly isolated from myeloma patients. […]
(A). […] Compound A induced MM cell apoptosis were measured by Annexin V staining as described in Materials and Methods. […] Cell growths were assessed by MTS assay. […]

Data set [1] concerns MM cell lines ARP1, MM.1S and MM.1R. Briefly: Apoptosis with or without IL-6 addition. It counts as cell-based, human. The conditions noted are these: 10 μM compound A, rhIL-6. On the procedure:
IL-6 is an important survival cytokine for MM (Klein B, Zhang X G, Jourdan M, et al. Interleukin-6 is the central tumor growth factor in vitro and in vivo in multiple myeloma. Eur Cytokine Netw. 1990; 1 (4):193-201; Gado K, Domjan G, Hegyesi H, Falus A. Role of INTERLEUKIN-6 in the pathogenesis of multiple myeloma. Cell Biol Int. 2000; 24 (4):195-209). […] For this purpose, different MM cell lines ARP1, MM.1S and MM.1R were cultured with or without recombinant hIL-6 (final concentration […]) and treated with or without 10 μM compound A for 2 days. As a positive control, MM.1S cells were treated with 40 μg/ml of dexamethasone with or without hIL-6 addition for the same period of time.
MM cell lines ARP1, MM.1S and MM.1R were cultured with 10 μM compound A for 3 days. rhIL-6 were added to final concentration of 5 ng/ml. As a positive control, MM.1S cells were treated with 40 μg/ml dexamethasone in the presence of 5 ng/ml of rhIL6 for the same time. Cells apoptosis rate was measured by annexin V staining. (B). Same MM cells were co-cultured with or without MM BMSC, and treated with 10 μM of compound A for 1 day. As a positive control, MM.1S cells were cocultured with or without BMSC and treated with 40 μg/ml dexamethasone for 1 day. CD138+ MM cells apoptosis rate was measured by Annexin V staining.

A further data set deals with MM.1R. In words: MTS cell growth assay. The conditions noted are these: Homo sapiens, 24 hours treatment, read-out: IC50 (concentration at 50% inhibition), cell growth. Type of data set: cell-based. As to the method:
as §1
(§2) All experiments were performed in triplicate.

Another data set deals with MM.1S. Briefly: MTS cell growth assay. It counts as cell-based. The note with it: Homo sapiens, MM1.S, 24 hours treatment, read-out: IC50 (concentration at 50% inhibition), cell growth. On the procedure: as §1, §2
The subject of another data set is U266. Briefly: MTS cell growth assay. Type of data set: cell-based. The note with it: Homo sapiens, U-266, U266, 24 hours treatment, read-out: IC50 (concentration at 50% inhibition), cell growth. On the procedure: as §1, §2
The test system of the next data set is ARP1. Briefly: MTS cell growth assay. The conditions noted are these: Homo sapiens, ARP-1, ARP1, 24 hours treatment, read-out: IC50 (concentration at 50% inhibition), cell growth. It counts as cell-based. On the procedure: as §1, §2
The next data set concerns ARK. Briefly: MTS cell growth assay. The note with it: Homo sapiens, 24 hours treatment, read-out: IC50 (concentration at 50% inhibition), cell growth. It counts as cell-based. As to the method:
as §1, §2

Data set [2] concerns CD138− stromal cells (BMSCs). Briefly: Cytotoxicity toward stromal cells in primary MM coculture. It counts as cell-based, human. The conditions noted are these: 0 to 1 mM, 24 hours, versus primary MM cells.
Protocol: MM cell lines ARP1, ARK, MM.1S, MM.1R and U266 were maintained in RPMI-1640 medium supplemented with 10% fetal bovine serum, 100 U/ml penicillin and 100 μg/ml streptomycin at 37° C. and 5% CO2 Primary MM cells and MM BMSCs were isolated from bone marrow aspirates of myeloma patients. PBMCs were obtained from healthy volunteers. […] Compound A was dissolved in DMSO at 10 mM as stock solution. […] FITC conjugated Annexin V was obtained from Invitrogen.
(§3) Compound A-induced cell apoptosis was detected by Annexin V binding assay as previously described (Zheng Y, Cai Z, Wang S, et al. Macrophages are an abundant component of myeloma microenvironment and protect myeloma cells from chemotherapy drug-induced apoptosis. Blood. 2009; 114 (17):3625-3628). Briefly, MM cells were cultured in 24-well plates and treated with 0 to 1 mM final concentrations of compound A for 24 or 72 hours. The cells were washed twice with cold PBS and resuspended in Annexin V binding buffer (Invitrogen). MM cells were stained with FITC-conjugated Annexin V and propidium iodide (PI) for 15 min at room temperature. Apoptotic cells were determined as Annexin V positive cells.
In data set [3] the test system is MM cells ARP1, MM.1S and MM.1R. Briefly: Low-dose single agents, apoptosis. The note with it: 1 μM compound A alone, 1 day. It counts as cell-based, human.
Protocol: as §3
Next, the experiment was extended to other MM cell lines, and they were treated with low compound A (1 μM) and dexamethasone (40 μg/ml).
ARP1 cells were treated with 10 μM compound A (BK), 15 nM melphalan (Me), 40 μg/ml dexamethasone (De), 100 μM lenalidomide (Le), 10 μM Bortizomib (BT), or their combinations for 1 day. The cell apoptosis were measured as described. […] Cell apoptosis was measured. […] Same MM cell lines were treated with compound A for 1 day and cell growth were measured by MTS. […] Cell apoptosis were measured by annexin V staining. […] Cells apoptosis rates were measured by annxin V staining. […]
Data set [4] deals with p27 (Kip1) and cyclin D1 in MM cells. Briefly: Immunoblotting, cell cycle regulators. Type of data set: cell-based, human. The conditions noted are these: 10 μM compound A. As to the method:
as §1
(A). […] Compound A induced activation and cleavage of caspase-3, caspase-9 and PARP is shown. (B). Same MM cells treated with 10 μM compound A were lysed for western blotting. (C) RP1 cells were treated with 10 μM compound A for 1, 6, 12 and 24 hours.

Each structure is given as a SMILES string.

Consider `Nc1cc(C(F)(F)F)c(-c2cc(N3CCOCC3)nc(N3CCOCC3)n2)cn1` [compound A, 5-(2,6-di-morpholin-4-yl-pyrimidin-4-yl)-4-trifluoromethyl-pyridin-2-ylamine], for which, in the data set on CD138+ primary MM cells, the “primary MM cells apoptosis” value is “more than 70%”. Further, in data set [1], the “effect of IL6 addition on compound A induced MM cell apoptosis” value was “did not affect”. Besides, the IC50 in the data set on MM.1R is 1 to 10 µM; in the data set with MM.1S it was under 1 µM; in the data set on U266, 10 to 100 µM; in the data set on ARP1, 1 to 10 µM; with ARK, 1 to 10 µM. Besides, the “cytotoxicity toward CD138− stromal cells” value in data set [2] is “significantly lower cytotoxicity”. Also, the “cytotoxic effect of low dose alone” value in data set [3] is listed as “only limited cytotoxic effect”. Also, in data set [4], the “cyclin D1 expression” value was “down-regulated”. Besides, in data set [4], the “p27 (Kip1) protein expression” value is “up-regulated”.

Values taken from patent US20130310352A1, “DEXAMETHASONE COMBINATION THERAPY” (priority 2010, published 2013).
